Experimental findings from publication PMC7738856, “Inter and intra-tumor somatostatin receptor 2 heterogeneity influences peptide receptor radionuclide therapy response” (Theranostics, 2021) are described below.

One series relates to NCl-H69 tumors. Description: Ki-67 immunohistochemistry of tumor sections. It is filed as in vivo, BALB-c/nude mice. The procedure:
BALB-c/nude mice were engrafted subcutaneously with 5 x 10^6 NCI-H69 cells in 200 μl Hanks Balanced Salt Solution (HBSS) (Gibco, 14065056) containing 33,3% Matrigel (Corning, 354248). […] Organs were put in a gamma-counter for measurement of radioactive uptake and then fixed in formalin for 1 day at RT and stored in 70% ethanol until they were embedded in paraffin. Uninjected animals were used as control (n = 4). […] Secondary antibodies used are donkey-anti-rabbit IgG Alexa Fluor 594 (Thermo Fisher, A-11078; 1:500) and donkey-anti-mouse IgG Alexa Fluor 488 (Thermo Fisher; A-11005; 1:500). For immunohistochemical stainings (IHC) Ki-67 (Abcam, ab15580; 1:200) was used. Here, the secondary antibody used is Peroxidase donkey-anti-rabbit IgG (Jackson Immunoresearch, 711-035-152; 1:2000). Tissue sections of 4 μm were deparaffinized and rehydrated. Samples were then incubated in 3% H2O2 (Honeywell, 95299) in methanol (Honeywell, 32213-2.5l) for 20 minutes at RT. Slides were washed with tap water and boiled in pH 6 Antigen Retrieval buffer for 20 minutes. Slides were incubated in blocking solution (PBS 5%BSA), following with the primary antibody in blocking solution overnight at 4 °C and with the secondary antibody in blocking solution for 90 minutes at RT. […] Quantification was performed in ImageJ by using particle analysis after.

Series [1] relates to NCI-H69 tumors. Kind of series: Tumor growth and survival, NCI-H69 xenografts. It is filed as in vivo, BALB-c/nude mice. To be noted: n = 8. The procedure: (§1) Animal experiments were approved by the Animal Welfare Committee of the Erasmus MC and were conducted in accordance with European guidelines. Animal experiments included a time series for analyses of radiobiological parameters in NCI-H69 xenografts and survival cohorts with NCI-H69 or CA20948 xenografts.
(§2) BALB-c/nude mice were engrafted subcutaneously with 5 x 10^6 NCI-H69 cells in 200 µl HBSS containing 33,3% Matrigel or with 5 x 10^6 CA20948 cells in 200 µl HBSS. Mice with NCI-H69 tumors (n = 8) were injected when tumor volumes reached 697 ± 256 mm^3 and mice with CA20948 tumors (n = 9) when tumor reached 318 ± 216 mm^3. Both groups were compared to vehicle injected counterparts (n = 8 and n = 6, respectively). Tumor volumes were measured three times per week p.i. Mice were sacrificed when tumor volumes reached the humane endpoint of 2000 mm^3. Tumors were fixed in formalin for 1 day at RT and stored in 70% ethanol until they were embedded in paraffin.

Another series relates to NCl-H69 xenografted mice. Further details: species or system BALB-c/nude mice. To be noted: mouse, in vivo, iv. The procedure: BALB-c/nude mice were engrafted subcutaneously with 5 x 10^6 NCI-H69 cells in 200 µl Hanks Balanced Salt Solution (HBSS) (Gibco, 14065056) containing 33,3% Matrigel (Corning, 354248). […] Mice were sacrificed by cervical dislocation and analyzed at 1 h, 1, 2, 3, 4, 5, 7, 9, 11 and 14 days post injection (p.i.). Organs were put in a gamma-counter for measurement of radioactive uptake and then fixed in formalin for 1 day at RT and stored in 70% ethanol until they were embedded in paraffin. Uninjected animals were used as control (n = 4).
The biodistribution data were analyzed to determine the kinetics of the activity in organs and tumors. The measured activity data as a function of time were fitted with single or double exponential curves using the least-square regression method with Graphpad Prism version 5 (graphpad.com). Decisions on to use a single or a double exponential curve was based on the (corrected) Akaike's information criterion. The time-activity curves were integrated over time to determine the time-integrated activity coefficients after folding in the lutetium-177 decay function. Absorbed doses in all organs and in the tumor were calculated by using the MIRD equation with the lutetium-177 S-values for a 22 g mouse Moby phantom, kindly provided by Dr Erik Larsson.

The test system of a further series is CA20948 tumors. Kind of series: Tumor growth and survival, CA20948 xenografts. The series is classed as in vivo, BALB-c/nude mice. The conditions noted are these: treated CA20948 bearing mice, 30 MBq, n = 9. How it is done: as §1, §2
Series [2] concerns NCI-H69 tumors. Description: 53BP1 and γH2AX foci (immunofluorescence) in tumor sections. It is filed as in vivo, BALB-c/nude mice. To be noted: 2 days p.i. How it is done:
BALB-c/nude mice were engrafted subcutaneously with 5 x 10^6 NCI-H69 cells in 200 µl Hanks Balanced Salt Solution (HBSS) (Gibco, 14065056) containing 33,3% Matrigel (Corning, 354248). […] Organs were put in a gamma-counter for measurement of radioactive uptake and then fixed in formalin for 1 day at RT and stored in 70% ethanol until they were embedded in paraffin. Uninjected animals were used as control (n = 4). […] Secondary antibodies used are donkey-anti-rabbit IgG Alexa Fluor 594 (Thermo Fisher, A-11078; 1:500) and donkey-anti-mouse IgG Alexa Fluor 488 (Thermo Fisher; A-11005; 1:500). For immunohistochemical stainings (IHC) Ki-67 (Abcam, ab15580; 1:200) was used. Here, the secondary antibody used is Peroxidase donkey-anti-rabbit IgG (Jackson Immunoresearch, 711-035-152; 1:2000). Cells were IF stained as previously described. Briefly, tissue sections were deparaffinized as described above. Then antigen retrieval was performed by boiling slides for 20 minutes in pH 6 (for cytoplasmic antigens) or pH 9 (for nuclear antigens) antigen retrieval buffer (DAKO) and cooling down to RT. Tissues were permeabilized with PBS+0.5% Triton (PBS(T)) at RT and blocked with 3% BSA in PBS(T) at RT. Sections were incubated with primary antibodies overnight at 4 °C in block buffer and with secondary antibodies for 60 minutes at RT. Mounting was done using Vectashield containing DAPI (Vector labs, H-1200). 53BP1 and γH2AX focus formation was imaged with a Leica SP5 confocal microscope (Leica) using Z-stack acquisition. For tile-scan analyses a LSM700 confocal microscope (Zeiss) was used. Tiles were stitched, thresholded and quantified using ImageJ. ImageJ was utilized to apply the same local threshold (default for DAPI, MaxEntropy for SST2) to all images in order to segment nuclei or quantify DAPI signal and quantify IF signal. Foci were quantified using the Find Maxima function.

Series [3] has as its system CA20948 and NCI-H69 cells. Kind of series: In vitro uptake of radioactivity (γ-counts) in cells. The conditions noted are these: 1 MBq/mL, 4 h incubation, n = 3 experiments. It is filed as cell-based. The procedure:
NCI-H69 cells (ATCC) were cultured in Rosewell Park Medium Institute […] medium (RPMI-1638) (Sigma-Aldrich) supplemented with penicillin (50 units/mL), streptomycin (50 µg/mL) (Pen/Strep) and 10% fetal calf serum (FCS). CA20948 [14] cells were cultured in Dulbecco's Modified Eagle's Medium (DMEM) (Gibco) supplemented with Pen/Strep and 10% FCS. Cells were cultured at 37 °C and 5% CO2.
NCI-H69 cells were spun down on a glass slide using a cytospin centrifuge (Rotofix 32A, Hettich) for 6 minutes at 347 g at room temperature (RT). CA20948 cells were washed and fixed on coverslips. Fixation was done using 2% paraformaldehyde (PFA) for 20 minutes at RT and samples were stained according to protocol (see below).
S4. [177Lu]Lu-DO T A -TATE uptake in SST2hi g h and SST2low NCI-H69 cells. (A) lutetium- 177 uptake measured by γ-counts in NCI-H69 and CA20948 cells after 4 hours of incubation (experiment n = 3).
**p < 0.01 (B) Representative IF images of SST2 after [ 177Lu]Lu-DOT A- TATE treatment. Arrows indicate internalization and accumulation of SST 2.
S5. Additional foci quantifications in SST2hi g h and SST2low cells. γH2AX foci quantification in SST2high and SST 2lo w NC I -H69 cells 2 days after [177Lu]Lu-DOT A -TATE treatment. Error bars indicate […]

The test system of series [4] is NCI-H69 tumors. Description: TUNEL assay on tumor sections. It is filed as in vivo, BALB-c/nude mice. The conditions noted are these: 30 MBq, n = 4; for TUNEL positive areas (average): 25 fields of view per tumor. The procedure:
BALB-c/nude mice were engrafted subcutaneously with 5 x 10^6 NCI-H69 cells in 200 µl Hanks Balanced Salt Solution (HBSS) (Gibco, 14065056) containing 33,3% Matrigel (Corning, 354248). […] Organs were put in a gamma-counter for measurement of radioactive uptake and then fixed in formalin for 1 day at RT and stored in 70% ethanol until they were embedded in paraffin. Uninjected animals were used as control (n = 4). Tissue sections of 4 µm were deparaffinized and rehydrated. TUNEL assay was performed using the In Situ Cell Death Detection Kit, Fluorescein (Roche, 11684795910) according to manufacturer's instructions. 53BP1 and γH2AX focus formation was imaged with a Leica SP5 confocal microscope (Leica) using Z-stack acquisition. For tile-scan analyses a LSM700 confocal microscope (Zeiss) was used. Tiles were stitched, thresholded and quantified using ImageJ.

The next series concerns NCI-H69 cells. Description: 53BP1 and γH2AX foci in cells after in vitro treatment. The series is classed as cell-based. The procedure: NCI-H69 cells (ATCC) were cultured in Rosewell Park Medium Institute […] medium (RPMI-1638) (Sigma-Aldrich) supplemented with penicillin (50 units/mL), streptomycin (50 µg/mL) (Pen/Strep) and 10% fetal calf serum (FCS). CA20948 [14] cells were cultured in Dulbecco's Modified Eagle's Medium (DMEM) (Gibco) supplemented with Pen/Strep and 10% FCS. Cells were cultured at 37 °C and 5% CO2. […] NCI-H69 cells were spun down on a glass slide using a cytospin centrifuge (Rotofix 32A, Hettich) for 6 minutes at 347 g at room temperature (RT). CA20948 cells were washed and fixed on coverslips. Fixation was done using 2% paraformaldehyde (PFA) for 20 minutes at RT and samples were stained according to protocol (see below). Cells were IF stained as previously described. Briefly, tissue sections were deparaffinized as described above. Then antigen retrieval was performed by boiling slides for 20 minutes in pH 6 (for cytoplasmic antigens) or pH 9 (for nuclear antigens) antigen retrieval buffer (DAKO) and cooling down to RT. […] Tiles were stitched, thresholded and quantified using ImageJ. ImageJ was utilized to apply the same local threshold (default for DAPI, MaxEntropy for SST2) to all images in order to segment nuclei or quantify DAPI signal and quantify IF signal. Foci were quantified using the Find Maxima function.

Molecules are shown by their SMILES.

In the case of `C[C@@H](O)[C@H](NC(=O)[C@@H]1CSSC[C@H](NC(=O)[C@@H](Cc2ccccc2)NC(=O)CN2CCN(CC(=O)O)CCN(CC(=O)O)CCN(CC(=O)O)CC2)C(=O)N[C@@H](Cc2ccc(O)cc2)C(=O)N[C@H](Cc2c[nH]c3ccccc23)C(=O)N[C@@H](CCCCN)C(=O)N[C@@H]([C@@H](C)O)C(=O)N1)C(=O)O` [[^177Lu]Lu-DOTA-TATE, [^177Lu]Lu-DOTA-[Tyr^3]octreotate, metal not drawn], the Ki-67 positive cells in the series with NCl-H69 tumors (2 days after treatment, significantly increased) was 74.13%. In addition, the “Ki-67 positive (cycling) cells in non-apoptotic regions” value in the series with NCl-H69 tumors (all samples regardless of therapy, except 2 days after treatment) came out at 60.96 ± 5.32%. Further, in the series with NCI-H69 tumors [1] (14 days p.i., then regrowth, 30 MBq single injection), the “tumor volume as % of the starting volume” value is recorded as 71%. The median survival in the series on NCI-H69 tumors [1] (treated NCI-H69 bearing mice, 30 MBq) stood at 34 days. Further, in the series with NCl-H69 xenografted mice, the “absorbed dose, kidney” value was determined as 3.5 ± 0.12 Gy; the “absorbed dose, other organs” value is listed as 0.22-1.48 Gy; the “absorbed dose, tumor” value turned out to be 10.08 ± 0.35 Gy. Besides, the median survival in the series on CA20948 tumors worked out at 54 days. In the series with NCI-H69 tumors [2] (n = 4), the “γH2AX foci in SST2 high cells, treated versus non-treated SST2 high regions” value is given as “significant increase”; the “γH2AX foci in SST2 high versus SST2 low cells in tumors from treated mice” value is on record as “significantly higher number”; the “γH2AX foci in SST2 low cells, treated versus non-treated mice” value was “no significant increase”. Further, the “increase in the number of γH2AX foci” value in the series on NCI-H69 tumors [2] (versus NT controls) is 5 fold. The “uptake of radioactivity in CA20948 compared to NCI-H69 cells” value in series [3] was 3 fold. In addition, the “TUNEL positive areas (average)” value in the series with NCI-H69 tumors [4] (4 days p.i.) was found to be 50%. Also, in the series on NCI-H69 tumors [4] (5 days p.i.), the “TUNEL positive areas (average)” value is 47%. Also, the “fraction of TUNEL positive cells (average)” value with NCI-H69 tumors [4] (14 days after treatment) is given as 26%. In addition, the “level of 53BP1 and γH2AX foci per cell versus non-treated cells” value with NCI-H69 cells (1 day post treatment, 1 MBq/mL for 4 h at 37 °C) was “significant increase”. Moreover, the “γH2AX foci in SST2 high versus SST2 low NCI-H69 cells in vitro” value in the series with NCI-H69 cells (2 days after incubation, 1 MBq/mL for 4 h) was “significant higher number”.
